From patent publication US20240109917A1 (ACTELION PHARMACEUTICALS LTD, priority 2020, published 2024) come the findings set out here.

Some results are limits rather than exact numbers.

In assay [1] the target is His6-TEV-PDGFRβ (557-1016) (Homo sapiens (Human), UniProt P09619). Kind of assay: PDGFRβ HTRF Assay. Conditions: read-out: PDGFR HTRF IC50. The class given is biochemical. The essentials: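 HTRF KinEASE-TK readout (665/620 nm ratio) of TK-biotin substrate phosphorylation by His-tagged PDGFRβ kinase domain. Enzyme and inhibitor preincubated 30 min, then ATP/substrate added for 3 h at room temperature before 60 min EDTA quench/detection.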
His6-TEV-PDGFRβ (557-1016), sequence (P09619 557-1016): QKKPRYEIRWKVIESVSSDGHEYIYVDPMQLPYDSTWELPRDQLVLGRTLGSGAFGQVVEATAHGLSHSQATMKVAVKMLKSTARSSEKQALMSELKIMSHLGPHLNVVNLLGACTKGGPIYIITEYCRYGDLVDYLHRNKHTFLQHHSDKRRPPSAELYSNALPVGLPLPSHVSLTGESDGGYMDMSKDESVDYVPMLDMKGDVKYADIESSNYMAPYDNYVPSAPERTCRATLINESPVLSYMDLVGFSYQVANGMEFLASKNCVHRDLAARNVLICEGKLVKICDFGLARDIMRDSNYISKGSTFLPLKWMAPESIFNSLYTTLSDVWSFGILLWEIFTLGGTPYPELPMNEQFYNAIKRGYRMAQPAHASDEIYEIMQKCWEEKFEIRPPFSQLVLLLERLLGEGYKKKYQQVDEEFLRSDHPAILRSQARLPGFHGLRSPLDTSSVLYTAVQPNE

Assay [2] addresses VEGFR2, unphosphorylated (Homo sapiens (Human), UniProt P35968). Kind of assay: VEGFR ADP GLO Assay. The class given is biochemical.

VEGFR2, unphosphorylated, sequence (P35968 20-1356): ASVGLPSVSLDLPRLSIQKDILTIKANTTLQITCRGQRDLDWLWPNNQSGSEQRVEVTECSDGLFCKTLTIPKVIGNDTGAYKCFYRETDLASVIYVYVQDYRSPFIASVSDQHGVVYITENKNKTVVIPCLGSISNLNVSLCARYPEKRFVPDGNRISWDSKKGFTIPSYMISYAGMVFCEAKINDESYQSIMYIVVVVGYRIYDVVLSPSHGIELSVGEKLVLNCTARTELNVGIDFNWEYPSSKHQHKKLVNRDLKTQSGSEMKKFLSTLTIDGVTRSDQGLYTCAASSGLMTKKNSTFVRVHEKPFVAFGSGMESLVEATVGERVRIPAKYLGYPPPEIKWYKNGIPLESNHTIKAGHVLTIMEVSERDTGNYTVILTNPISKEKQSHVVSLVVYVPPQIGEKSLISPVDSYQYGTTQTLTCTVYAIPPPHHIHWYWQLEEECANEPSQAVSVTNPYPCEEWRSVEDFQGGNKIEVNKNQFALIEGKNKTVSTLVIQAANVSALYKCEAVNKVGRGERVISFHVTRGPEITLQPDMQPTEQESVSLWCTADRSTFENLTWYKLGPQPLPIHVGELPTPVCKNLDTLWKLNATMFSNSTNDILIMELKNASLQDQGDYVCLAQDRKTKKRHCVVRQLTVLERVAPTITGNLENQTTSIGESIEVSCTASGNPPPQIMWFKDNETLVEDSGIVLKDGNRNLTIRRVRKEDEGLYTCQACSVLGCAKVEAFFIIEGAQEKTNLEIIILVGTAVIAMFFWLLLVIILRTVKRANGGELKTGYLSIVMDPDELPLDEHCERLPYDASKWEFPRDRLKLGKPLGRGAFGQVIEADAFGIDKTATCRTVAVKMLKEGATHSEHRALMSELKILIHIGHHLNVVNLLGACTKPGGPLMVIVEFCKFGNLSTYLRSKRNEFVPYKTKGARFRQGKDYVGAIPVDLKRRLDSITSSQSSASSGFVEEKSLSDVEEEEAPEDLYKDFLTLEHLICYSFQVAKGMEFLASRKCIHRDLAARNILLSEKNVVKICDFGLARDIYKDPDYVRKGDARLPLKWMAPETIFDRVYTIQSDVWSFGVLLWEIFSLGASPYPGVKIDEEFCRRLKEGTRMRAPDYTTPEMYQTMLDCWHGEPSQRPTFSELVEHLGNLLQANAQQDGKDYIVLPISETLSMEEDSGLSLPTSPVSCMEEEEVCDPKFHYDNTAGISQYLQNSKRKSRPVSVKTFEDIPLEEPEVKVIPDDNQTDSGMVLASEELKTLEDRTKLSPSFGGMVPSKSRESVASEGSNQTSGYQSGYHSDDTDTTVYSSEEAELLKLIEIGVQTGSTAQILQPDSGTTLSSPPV

With `Cc1ncc(C(=O)NCCN2CCC3(CC3)C2)cc1NC(=O)c1cnn2cc(-c3cccnc3)sc12` [Example 159, N-(5-((2-(5-azaspiro[2.4]heptan-5-yl)ethyl)carbamoyl)-2-methylpyridin-3-yl)-2-(pyridin-3-yl)pyrazolo[5,1-b]thiazole-7-carboxamide], the IC50 was 0.7 nM in assay [1] and over 7500 nM in assay [2].
For `Cc1ncc(C(=O)NCCN2CCC3(CC3)C2)cc1NC(=O)c1cnn2cc(-c3ccccn3)sc12` [Example 160, N-(5-((2-(5-azaspiro[2.4]heptan-5-yl)ethyl)carbamoyl)-2-methylpyridin-3-yl)-2-(pyridin-2-yl)pyrazolo[5,1-b]thiazole-7-carboxamide], in that order: 0.2 nM and over 7500 nM.
Turning to `Cc1ncc(C(=O)NCCN2CC(C)(C)C2)cc1NC(=O)c1cnn2cc(-c3cn(C)cn3)sc12` [Example 161], the IC50 in assay [1] was 0.5 nM; in assay [2], over 7500 nM.
In the same order, the values of `Cc1ncc(C(=O)NCCN2CCC3(CC3)C2)cc1NC(=O)c1cnn2cc(-c3cn(C)cn3)sc12` [Example 162, N-(5-((2-(5-azaspiro[2.4]heptan-5-yl)ethyl)carbamoyl)-2-methylpyridin-3-yl)-2-(1-methyl-1H-imidazol-4-yl)pyrazolo[5,1-b]thiazole-7-carboxamide] are 0.4 nM and over 7500 nM.
`Cc1ncc(C(=O)NCCN2CCCC2(C)C)cc1NC(=O)c1cnn2cc(-c3cn(C)cn3)sc12` [Example 163, N-(5-((2-(2,2-dimethylpyrrolidin-1-yl)ethyl)carbamoyl)-2-methylpyridin-3-yl)-2-(1-methyl-1H-imidazol-4-yl)pyrazolo[5,1-b]thiazole-7-carboxamide]: the IC50 was 0.3 nM in assay [1] and over 7500 nM in assay [2].
For the compound `COCCn1cc(-c2cn3ncc(C(=O)Nc4cc(C(=O)NCCN5CCC(F)(F)CC5)cnc4C)c3s2)cn1` [Example 165, N-(5-((2-(4,4-difluoropiperidin-1-yl)ethyl)carbamoyl)-2-methylpyridin-3-yl)-2-(1-(2-methoxyethyl)-1H-pyrazol-4-yl)pyrazolo[5,1-b]thiazole-7-carboxamide], the figures for the IC50 in assay [1] and in assay [2] were 0.6 nM and over 7500 nM, respectively.
For `COCCn1cc(-c2cn3ncc(C(=O)Nc4cc(C(=O)NCCN5CC(C)(C)C5)cnc4C)c3s2)cn1` [Example 166, N-(5-((2-(3,3-dimethylazetidin-1-yl)ethyl)carbamoyl)-2-methylpyridin-3-yl)-2-(1-(2-methoxyethyl)-1H-pyrazol-4-yl)pyrazolo[5,1-b]thiazole-7-carboxamide], in that order: 0.7 nM and over 7500 nM.
In the same order, the values of `COCCn1cc(-c2cn3ncc(C(=O)Nc4cc(C(=O)NCCN5CCC(F)(F)C5)cnc4C)c3s2)cn1` [Example 167, N-(5-((2-(3,3-difluoropyrrolidin-1-yl)ethyl)carbamoyl)-2-methylpyridin-3-yl)-2-(1-(2-methoxyethyl)-1H-pyrazol-4-yl)pyrazolo[5,1-b]thiazole-7-carboxamide] are 0.5 nM and over 7500 nM.
With `COCCn1cc(-c2cn3ncc(C(=O)Nc4cc(C(=O)NCCN5CC6(CCC6)C5)cnc4C)c3s2)cn1` [Example 168, N-(5-((2-(2-azaspiro[3.3]heptan-2-yl)ethyl)carbamoyl)-2-methylpyridin-3-yl)-2-(1-(2-methoxyethyl)-1H-pyrazol-4-yl)pyrazolo[5,1-b]thiazole-7-carboxamide], the IC50 in assay [1] is 0.6 nM; in assay [2] it was over 7500 nM.
Take `Cc1ncc(C(=O)NCCN2CCC23CCC3)cc1NC(=O)c1cnn2cc(-c3cnn(C)c3C)sc12` [Example 169, N-(5-((2-(1-azaspiro[3.3]heptan-1-yl)ethyl)carbamoyl)-2-methylpyridin-3-yl)-2-(1,5-dimethyl-1H-pyrazol-4-yl)pyrazolo[5,1-b]thiazole-7-carboxamide]: the IC50 was 0.3 nM in assay [1] and over 7500 nM in assay [2].
